{
  "source": "patent EP4610267A1",
  "about": "“CYCLIC DINUCLEOTIDES AND CONJUGATES THEREOF WITH ANTIBODIES” (priority 2024, dated 2025)",
  "key": {"STING Q": {"system": "STING Q", "experiment": "293T STING digitonin reporter assay (Q haplotype)", "assay_type": "cell-based, human", "details": "digitonin permeabilised 293T reporter cells", "method": "Digitonin Assay with 293T Reporter Cells. The generation of 293T reporter cells stably expressing different STING protein haplotypes (WT, HAQ, REF, AQ, or Q) was described previously (Novotna et al, J. Med. Chem. 2019,62, 10676). The cells were seeded at a density of 250 000 cells per cm^2 into 96 well white poly(D-lysine) coated plates in 100 µL of DMEM with high glucose supplemented with 10% heat inactivated FBS. Next day, the medium was removed, and compounds were added in 3-fold serial dilutions in a digitonin buffer containing 50 mM HEPES (pH 7.0), 100 mM KCl, 3 mM MgClz, 0.1 mM DTT, 85 mM sucrose, 0.2% (w/w) BSA, 1 mM ATP, 0.1 mM GTP, and 10 µg/mL digitonin A. After 30 min incubation at 37 °C with 5% CO2, the digitonin buffer was removed, cells were washed once with 100 µL of the cultivation medium, and 100 µL of fresh medium was added to each well. The plates with cells were further incubated for 5 h at 37 °C with 5% CO2. Thereafter, 50 µL of the medium was removed, and 30 µL of Bright-Glo Luciferase Assay System reagent was added to each well. […] Nonlinear regression curve fit with standard slope was used for EC50 value calculations. The EC50 value represents CDN concentration that gives half-maximal response of firefly luciferase in the 293T reporter assay."}, "plasma cytokines": {"system": "plasma cytokines", "experiment": "In vivo plasma cytokine induction after single i.v. injection (multiplex ELISA, Luminex)", "details": "single i.v. 1.7mg/kg, Balb/C mice (Fig. 7)", "method": "Compound 3.3 was conjugated to the engineered light chain C110 and heavy chain C375 of anti-Her2 mAb (mAb3) as described above (mAb3-3.3). Furthermore, the compound was also conjugated to anti-Her2 mAb (mAb2) via inter-chain Cys (mAb2-3.3). A single intravenous injection of 5 mg/kg mAb2-3.3 (DAR 3.8) and 5 mg/kg mAb3-3.3 (DAR 3.6) was administered to Balb/C mice via tail vein injection. Blood samples were collected from the injected animals at 2, 4, 8, and 20 hours post-injection, and plasma cytokines were measured using multiplex ELISA (Luminex).\nCompound 3.3 was conjugated to anti-TROP2 mAb4 via inter-chain Cys and to the engineered light chain C110 and heavy chain C375 of anti-TROP2 mAb5, as described above. […] Blood samples were collected from the injected animals at 2, 4, 8, and 20 hours post-injection, and plasma cytokines were measured using multiplex ELISA (Luminex)."}},
  "data": [
    {"smiles": "Nc1ncnc2c1ncn2[C@@H]1O[C@@H]2OCP(=O)(S)O[C@@H]3[C@H](F)[C@@H](COP(=O)(S)OC[C@H]2[C@H]1F)O[C@H]3n1cnc2c(=O)[nH]cnc21", "note": "(single isomer, unassigned) [Compound 2.2]", "values": [
      {"measurement": "EC50", "setting": "STING Q", "result": 0.08, "unit": "µM"},
      {"measurement": "plasma cytokine levels", "setting": "plasma cytokines", "result": "high plasma levels"}
    ]}
  ]
}
